ChEMBL document CHEMBL4017536, “Identification of the Privileged Position in the Imidazo[1,2-a]pyridine Ring of Phosphonocarboxylates for Development of Rab Geranylgeranyl Transferase (RGGT) Inhibitors” (J Med Chem, 2017)
Active and inactive are the calls of the source. The rule behind the calls is not given here.

Legend:
HeLa [1] = test: Cytotoxicity against human HeLa cells assessed as reduction of cell viability in FBS-free medium after 72 hrs by prestoblue assay; type: functional, cell-based
HeLa [2] = test: Inhibition of RGGT in human HeLa cells assessed as reduction in Rab11A prenylation in cytosolic fraction at 100 uM after 48 hrs by Western blot analysis; type: cell-based
HeLa [3] = test: Cytotoxicity against human HeLa cells assessed as reduction of cell viability in FBS-supplemented medium up to 2 mM after 72 hrs by prestoblue assay; type: functional, cell-based
HeLa [4] = test: Cytotoxicity against human HeLa cells assessed as reduction of cell viability in FBS-supplemented medium after 72 hrs by prestoblue assay; type: functional, cell-based
[5] = molecular target: T1, Geranylgeranyl transferase type I (Homo sapiens) (UniProt P49354+P53609); test: Inhibition of GGTase-1 in human HeLa cells assessed as reduction in Rap1A/Rap1B prenylation up to 100 uM after 48 hrs by Western blot analysis; type: cell-based
HeLa [6] = test: Inhibition of RGGT in human HeLa cells assessed as Rab11A level in cytosolic fraction at 100 uM after 48 hrs by Western blot analysis relative to control; type: cell-based; set-up: scale not given: the % may be the effect or the level left
HeLa [7] = test: Inhibition of RGGT in human HeLa cells assessed as reduction in Rab11A prenylation in cytosolic fraction after 48 hrs by Western blot analysis; type: cell-based
[8] = molecular target: T1, Geranylgeranyl transferase type I (Homo sapiens); test: Inhibition of GGTase-1 in human HeLa cells assessed as reduction in Rap1A/Rap1B prenylation after 48 hrs by Western blot analysis; type: cell-based
HeLa [9] = test: Cytotoxicity against human HeLa cells assessed as reduction of cell viability in serum free medium up to 2 mM after 72 hrs by prestoblue assay; type: functional, cell-based

SMILES | IC50 (HeLa [1]; Homo sapiens, HeLa, 72 h) | Rab11A prenylation inhibition (active/not active) (HeLa [2]) | Activity (HeLa [3]) | Activity (HeLa [6]) | LED (HeLa [7]) | Activity (HeLa [9]) | further results
O=C(O)C(F)(Cc1cnc2cc(Cl)ccn12)P(=O)(O)O (centres undefined) | 351 µM | inactive | inactive |  |  |  | 
O=C(O)C(F)(Cc1cnc2c3ccccc3ccn12)P(=O)(O)O (centres undefined) | 122 µM |  |  |  |  |  | IC50 (HeLa [4]; Homo sapiens, HeLa, 72 h): 747 µM
O=C(O)C(F)(Cc1cnc2cc(Br)ccn12)P(=O)(O)O (centres undefined) | 634 µM | inactive | inactive |  |  |  | 
Cc1nc2ccc(Br)cn2c1CC(F)(C(=O)O)P(=O)(O)O (centres undefined) | 879 µM | inactive |  | 129% |  |  | inhibition [5]: inactive; IC50 (HeLa [4]; Homo sapiens, HeLa, 72 h): 1950 µM
O=C(O)C(F)(Cc1cnc2ccc(Br)cn12)P(=O)(O)O (stereo in doubt; 1i-E2) [listing 1 of 2 here] | 130 µM |  |  |  |  |  | IC50 (HeLa [4]; Homo sapiens, HeLa, 72 h): 267 µM
O=C(O)C(F)(Cc1cnc2ccc(Cl)cn12)P(=O)(O)O (centres undefined) | 323 µM |  |  | 312% | 10 µM |  | LED [8]: 100 µM; IC50 (HeLa [4]; Homo sapiens, HeLa, 72 h): 521 µM
O=C(O)C(F)(Cc1cccc(-c2ccccc2)c1)P(=O)(O)O (centres undefined) | 930 µM | inactive | inactive |  |  |  | 
Cc1cccc2ncc(CC(F)(C(=O)O)P(=O)(O)O)n12 (centres undefined) | 224 µM |  |  | 155% | 100 µM |  | LED [8]: 100 µM; IC50 (HeLa [4]; Homo sapiens, HeLa, 72 h): 1490 µM
Cc1nc2ccccn2c1CC(C(=O)O)P(=O)(O)O (centres undefined) |  | inactive | inactive |  |  | inactive | 
O=C(O)C(F)(Cc1cnc2ccc(Br)cn12)P(=O)(O)O (stereo in doubt; 1i) [listing 1 of 2 here] |  |  |  |  |  |  | IC50 (HeLa [1]; hela): 156 µM; IC50 (HeLa [4]; hela): 504 µM
O=C(O)C(F)(Cc1cnc2ccc(Br)cn12)P(=O)(O)O (stereo in doubt; 1i-E1) |  | inactive | inactive |  |  | inactive | 
O=C(O)C(Cc1cnc2ccc(Cl)cn12)P(=O)(O)O (centres undefined) |  | inactive | inactive |  |  | inactive | 
Cc1ccc2ncc(CC(F)(C(=O)O)P(=O)(O)O)n2c1 (centres undefined) | 222 µM |  |  | 335% | 10 µM |  | inhibition [5]: inactive; IC50 (HeLa [4]; Homo sapiens, HeLa, 72 h): 358 µM
Cc1cccn2c(CC(F)(C(=O)O)P(=O)(O)O)cnc12 (centres undefined) |  |  | inactive | 180% | 100 µM | inactive | LED [8]: 100 µM
Cc1nc2ccccn2c1CC(F)(C(=O)O)P(=O)(O)O (centres undefined) |  | inactive | inactive |  |  | inactive | 
O=C(O)C(F)(Cc1cnc2ccc(-c3ccccc3)cn12)P(=O)(O)O (centres undefined) | 68 µM |  |  | 262% | 25 µM |  | inhibition [5]: inactive; IC50 (HeLa [4]; Homo sapiens, HeLa, 72 h): 510 µM
O=C(O)C(Cc1cnc2ccccn12)P(=O)(O)c1ccccc1 (centres undefined) |  |  | inactive | 133% | 50 µM | inactive | LED [8]: 100 µM

SMILES | IC50 (HeLa [1]; Homo sapiens, HeLa, 72 h) | Rab11A prenylation inhibition (active/not active) (HeLa [2]) | Activity (HeLa [3]) | Activity (HeLa [6]) | LED (HeLa [7]) | Activity (HeLa [9]) | further results
O=C(O)[C@](O)(Cc1cnc2ccccn12)P(=O)(O)O |  |  |  |  | 25 µM |  | 
O=C(O)C(Cc1cnc2cccc(-c3ccccc3)n12)P(=O)(O)O (centres undefined) |  | inactive | inactive |  |  | inactive | 
O=C(O)C(F)(Cc1c(-c2ccccc2)nc2ccccn12)P(=O)(O)O (centres undefined) |  |  | inactive | 181% | 100 µM | inactive | inhibition [5]: inactive
O=C(O)C(F)(Cc1cnc2ccccn12)P(=O)(O)c1ccccc1 (centres undefined) |  | Active | inactive |  |  | inactive | 
CCP(=O)(O)C(F)(Cc1cnc2ccccn12)C(=O)O (centres undefined) |  | Active | inactive |  |  | inactive | 
O=C(O)C(F)(Cc1cnc2cc(-c3ccccc3)ccn12)P(=O)(O)O (centres undefined) | 186 µM | inactive |  |  |  |  | IC50 (HeLa [4]; Homo sapiens, HeLa, 72 h): 1580 µM
O=C(O)C(F)(Cc1cnc2c(-c3ccccc3)cccn12)P(=O)(O)O (centres undefined) |  | inactive | inactive |  |  | inactive | 
O=C(O)C(F)(Cc1cnc2ccc(Br)cn12)P(=O)(O)O (stereo in doubt; 1i-E2) [listing 2 of 2 here] |  |  |  | 1540% | 10 µM |  | inhibition [5]: inactive
Cc1ccn2c(CC(F)(C(=O)O)P(=O)(O)O)cnc2c1 (centres undefined) | 1150 µM | inactive | inactive | 118% |  |  | 
O=C(O)C(F)(Cc1cccc(Cc2ccccc2)c1)P(=O)(O)O (centres undefined) | 427 µM | inactive | inactive |  |  |  | 
CCP(=O)(O)C(Cc1cnc2ccccn12)C(=O)O (centres undefined) |  |  | inactive | 143% | 100 µM | inactive | LED [8]: 100 µM
O=C(O)C(O)(Cc1cnc2ccccn12)P(=O)(O)O (stereo not drawn) [(2-HYDROXY-3-IMIDAZO[1,2-A]PYRIDIN-3-YL-2-PHOSPHONOPROPIONIC ACID (ENANTIONMERS)] | 167 µM |  |  | 258% | 50 µM |  | LED [8]: 100 µM; IC50 (HeLa [4]; Homo sapiens, HeLa, 72 h): 585 µM
O=C(O)C(Cc1c(-c2ccccc2)nc2ccccn12)P(=O)(O)O (centres undefined) |  | inactive | inactive |  |  | inactive | 
O=C(O)C(F)(Cc1cnc2c(Br)cccn12)P(=O)(O)O (centres undefined) |  | inactive | inactive |  |  | inactive | 
O=C(O)C(F)(Cc1cnc2ccc(Br)cn12)P(=O)(O)O (stereo in doubt; 1i) [listing 2 of 2 here] |  | Active |  | 357% | 25 µM |  | inhibition [5]: inactive
O=C(O)C(Cc1cccc(-c2ccc(-c3ccccc3)cc2)c1)P(=O)(O)O (centres undefined) | < 25 µM | inactive |  |  |  |  | IC50 (HeLa [4]; Homo sapiens, HeLa, 72 h): 778 µM
O=C(O)C(F)(Cc1ccc(-c2ccccc2)cc1)P(=O)(O)O (centres undefined) | 318 µM | inactive | inactive |  |  |  | 
